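Test compounds were applied to cells in 96-well plates for 48 hours at 5 doses. Here, GI50 denotes the concentration required for 50% inhibition of growth.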 Activity calls are given as the source filed them. No stated cut-off is given here; in the data, active = GI50 up to about 1.1 µM and inactive = higher. Where a SMILES comes first, the peptide text is derived from it. [ ]: non-standard residue; d: D form. The star is where a group is joined. ξ: configuration not given here. ξD = NC(CC(=O)O)C(=O)O; Boc = CC(C)(C)OC(=O)*; Aib = CC(C)(N)C(=O)O; OtBu = CC(C)(C)O*
How the values were obtained:
Test in all cases: inhibition of tumour cell growth, NCI panel, 48 h
NCI-H460 = test system: NCI-H460
Malme-3M = test system: Malme-3M
OVCAR-5 = test system: OVCAR-5
MCF7 = test system: MCF7
OVCAR-4 = test system: OVCAR-4
Hs-578T = test system: Hs-578T
SN12C = test system: SN12C
SK-MEL-5 = test system: SK-MEL-5
NCI/ADR-RES = test system: NCI/ADR-RES
BT-549 = test system: BT-549
CCRF-CEM = test system: CCRF-CEM
A549 = test system: A549
SF-295 = test system: SF-295
UO-31 = test system: UO-31
HCC 2998 = test system: HCC 2998
U-251 = test system: U-251
SNB-75 = test system: SNB-75
UACC-257 = test system: UACC-257
NCI-H226 = test system: NCI-H226

SMILES | GI50 (NCI-H460) | GI50 (Malme-3M) | GI50 (OVCAR-5) | GI50 (MCF7) | GI50 (OVCAR-4) | GI50 (Hs-578T) | GI50 (SN12C) | GI50 (SK-MEL-5) | GI50 (NCI/ADR-RES) | GI50 (BT-549) | GI50 (CCRF-CEM) | GI50 (A549) | GI50 (SF-295) | GI50 (UO-31) | GI50 (HCC 2998) | GI50 (U-251) | GI50 (SNB-75) | GI50 (UACC-257) | GI50 (NCI-H226)
CC1(C)OC(CP(c2ccccc2)c2ccccc2)C(CP(c2ccccc2)c2ccccc2)O1 (stereo not given) | 0.417 µM (active) | 1.99 µM (inactive) | 2.25 µM (inactive) | 0.0869 µM (active) | 0.986 µM (active) | 2.02 µM (inactive) | 1.32 µM (inactive) | 2.13 µM (inactive) | > 100 µM (inactive) | 2.93 µM (inactive) | 0.794 µM (active) | 0.27 µM (active) | 0.544 µM (active) | 1.69 µM (inactive) | 0.774 µM (active) | 0.191 µM (active) | 1.36 µM (inactive) |  | 
COC(=O)c1nn2ccc3ccccc3c2c1C(=O)OC | > 100 µM (inactive) | > 100 µM (inactive) | > 100 µM (inactive) | > 100 µM (inactive) | > 100 µM (inactive) | > 100 µM (inactive) | 58.1 µM (inactive) | 37 µM (inactive) | 62.7 µM (inactive) | 63.5 µM (inactive) |  | > 100 µM (inactive) | > 100 µM (inactive) | 32.2 µM (inactive) |  | > 100 µM (inactive) | 72.8 µM (inactive) | 60.7 µM (inactive) | > 100 µM (inactive)
Cc1nc(=O)[nH]c(NCCNCCO)c1C(=O)Nc1cccc2cc3ccccc3cc12 | > 100 µM (inactive) | > 100 µM (inactive) | > 100 µM (inactive) |  | > 100 µM (inactive) | > 100 µM (inactive) | > 100 µM (inactive) | > 100 µM (inactive) | > 100 µM (inactive) | > 100 µM (inactive) | > 100 µM (inactive) | > 100 µM (inactive) | > 100 µM (inactive) |  | > 100 µM (inactive) | > 100 µM (inactive) | > 100 µM (inactive) | > 100 µM (inactive) | > 100 µM (inactive)
O=C(Nc1ccccc1)c1cc(S(=O)(=O)N2CCNC2=O)c(S)cc1Cl | > 100 µM (inactive) |  | > 100 µM (inactive) | > 100 µM (inactive) | > 100 µM (inactive) | > 100 µM (inactive) | > 100 µM (inactive) | > 100 µM (inactive) | > 100 µM (inactive) | > 100 µM (inactive) | > 100 µM (inactive) | > 100 µM (inactive) | > 100 µM (inactive) | > 100 µM (inactive) | > 100 µM (inactive) | > 100 µM (inactive) | > 100 µM (inactive) | > 100 µM (inactive) | 
CCOC(=O)c1ccc(-c2ccc(Cl)cc2)[nH]1 | > 10 µM (inactive) | > 10 µM (inactive) | > 10 µM (inactive) |  | > 10 µM (inactive) | > 10 µM (inactive) | > 10 µM (inactive) | > 10 µM (inactive) | > 10 µM (inactive) | > 10 µM (inactive) | > 10 µM (inactive) | > 10 µM (inactive) | > 10 µM (inactive) | > 10 µM (inactive) | > 10 µM (inactive) | > 10 µM (inactive) | > 10 µM (inactive) | > 10 µM (inactive) | 8.47 µM (inactive)
Cc1csc(CP(=O)(OC(C)C)OC(C)C)n1 | > 100 µM (inactive) | > 100 µM (inactive) | > 100 µM (inactive) | > 100 µM (inactive) | > 100 µM (inactive) | > 100 µM (inactive) | > 100 µM (inactive) | > 100 µM (inactive) | > 100 µM (inactive) | > 100 µM (inactive) |  | > 100 µM (inactive) | > 100 µM (inactive) | 74 µM (inactive) | > 100 µM (inactive) | > 100 µM (inactive) | > 100 µM (inactive) | > 100 µM (inactive) | > 100 µM (inactive)
CS(=O)(=O)c1ccc(NNc2cc(=O)[nH]c(=O)[nH]2)cc1 | > 100 µM (inactive) | > 100 µM (inactive) | > 100 µM (inactive) |  | > 100 µM (inactive) | > 100 µM (inactive) | > 100 µM (inactive) | > 100 µM (inactive) | > 100 µM (inactive) | > 100 µM (inactive) | > 100 µM (inactive) | > 100 µM (inactive) | > 100 µM (inactive) | > 100 µM (inactive) | > 100 µM (inactive) | > 100 µM (inactive) | > 100 µM (inactive) | > 100 µM (inactive) | > 100 µM (inactive)
COc1ccc(C2c3cc4c(cc3OC(NNc3ccccc3)C2C)OCO4)cc1 (stereo not given) | 3.57 µM (inactive) | 8.47 µM (inactive) | 7.33 µM (inactive) | 4.04 µM (inactive) |  | 16.1 µM (inactive) | 11 µM (inactive) | 17.9 µM (inactive) |  | 20.4 µM (inactive) | 4.01 µM (inactive) | 4.09 µM (inactive) | 2.08 µM (inactive) | 4.33 µM (inactive) | 1.82 µM (inactive) | 7.35 µM (inactive) | 22.6 µM (inactive) | 5.79 µM (inactive) | 16.3 µM (inactive)
CCOC(=O)c1cc(C2(OC)CCN(Cc3ccccc3)C2=O)c(-c2cc(C)no2)[nH]1 (stereo not given) | 82.4 µM (inactive) | > 100 µM (inactive) | > 100 µM (inactive) | 94.6 µM (inactive) | > 100 µM (inactive) | > 100 µM (inactive) |  | 97.1 µM (inactive) | > 100 µM (inactive) | > 100 µM (inactive) |  | > 100 µM (inactive) | > 100 µM (inactive) | > 100 µM (inactive) | > 100 µM (inactive) | > 100 µM (inactive) | > 100 µM (inactive) | > 100 µM (inactive) | 
CSC1=N[C@H](c2ccccc2)CS1 | > 100 µM (inactive) |  | > 100 µM (inactive) | > 100 µM (inactive) | > 100 µM (inactive) | > 100 µM (inactive) | > 100 µM (inactive) | > 100 µM (inactive) | > 100 µM (inactive) | > 100 µM (inactive) | > 100 µM (inactive) | > 100 µM (inactive) | > 100 µM (inactive) | > 100 µM (inactive) | > 100 µM (inactive) | > 100 µM (inactive) | 2.8 µM (inactive) | > 100 µM (inactive) | 
Oc1ccc[nH]c1=[Se] | 41.8 µM (inactive) | 50.1 µM (inactive) | 57.1 µM (inactive) | 65.5 µM (inactive) |  | > 100 µM (inactive) | 48.2 µM (inactive) | 39.4 µM (inactive) | 55.1 µM (inactive) | 55.1 µM (inactive) | 35.3 µM (inactive) | 32.9 µM (inactive) | 29.3 µM (inactive) | 83.2 µM (inactive) |  | 32.7 µM (inactive) | 92.3 µM (inactive) | > 100 µM (inactive) | > 100 µM (inactive)
Cc1c2ccccc2c(C2C3C(=O)N(c4cccc5ccccc45)C(=O)C3ON2Cc2ccc(CC(N)=O)cc2)c2ccccc12 (stereo not given) | 13.5 µM (inactive) | 28.6 µM (inactive) | 24.9 µM (inactive) | 14.8 µM (inactive) | 19 µM (inactive) | 27.6 µM (inactive) | 15.3 µM (inactive) | 10.5 µM (inactive) | 39.7 µM (inactive) | 30.2 µM (inactive) | 14.7 µM (inactive) | 16.3 µM (inactive) | 16.3 µM (inactive) | 24.7 µM (inactive) |  | 19.8 µM (inactive) | 9.55 µM (inactive) | 12.2 µM (inactive) | 13.4 µM (inactive)
O=C(CSc1nnc(-c2ccccn2)s1)N/N=C/c1ccccc1 | > 100 µM (inactive) | 97.7 µM (inactive) | > 100 µM (inactive) | > 100 µM (inactive) | > 100 µM (inactive) | > 100 µM (inactive) | > 100 µM (inactive) | > 100 µM (inactive) | > 100 µM (inactive) | > 100 µM (inactive) | > 100 µM (inactive) | > 100 µM (inactive) | > 100 µM (inactive) | 39.4 µM (inactive) |  | 54.5 µM (inactive) | 3.03 µM (inactive) | > 100 µM (inactive) | > 100 µM (inactive)
O=[N+]([O-])c1cccc(/N=N/c2c(O)ccc3ccccc23)c1 |  | 63.1 µM (inactive) | > 100 µM (inactive) |  | 66.8 µM (inactive) | 49.5 µM (inactive) | > 100 µM (inactive) | 75.7 µM (inactive) | 70 µM (inactive) | 43.8 µM (inactive) | 16.2 µM (inactive) | > 100 µM (inactive) | 31 µM (inactive) | > 100 µM (inactive) |  | 19.6 µM (inactive) | 91 µM (inactive) | > 100 µM (inactive) | 
c1cc(-c2sc(-c3ccncc3)c(-c3ccncc3)c2-c2ccncc2)ccn1 | 10.8 µM (inactive) | 17.7 µM (inactive) | 19.7 µM (inactive) | 19.4 µM (inactive) | 33 µM (inactive) | 22.3 µM (inactive) | 17.6 µM (inactive) | 14.7 µM (inactive) | 22.9 µM (inactive) | 18.7 µM (inactive) |  | 17.2 µM (inactive) | 17.3 µM (inactive) | 12.6 µM (inactive) | 3.27 µM (inactive) | 14.1 µM (inactive) | 14 µM (inactive) | 17 µM (inactive) | 14.6 µM (inactive)
COC(=O)C(C)(C)NC(=O)C(C)(C)NC(=O)C(CC(=O)OC(C)(C)C)NC(=O)OC(C)(C)C (stereo not given) (Boc-[ξD](OtBu)-[Aib]-[Aib]-OMe) | > 100 µM (inactive) | > 100 µM (inactive) | > 100 µM (inactive) | > 100 µM (inactive) | > 100 µM (inactive) | > 100 µM (inactive) |  | > 100 µM (inactive) | > 100 µM (inactive) | > 100 µM (inactive) | > 100 µM (inactive) | > 100 µM (inactive) | > 100 µM (inactive) | > 100 µM (inactive) |  | > 100 µM (inactive) | > 100 µM (inactive) | > 100 µM (inactive) | > 100 µM (inactive)
